One test has as its target T1, CRTH2 Receptor (Homo sapiens, UniProt Q9Y5Y4).
T1 construct: expressed in transfected cells; host or cells: Chinese Hamster Ovary (CHO) cells, membranes
T1 sequence (Q9Y5Y4 1-395): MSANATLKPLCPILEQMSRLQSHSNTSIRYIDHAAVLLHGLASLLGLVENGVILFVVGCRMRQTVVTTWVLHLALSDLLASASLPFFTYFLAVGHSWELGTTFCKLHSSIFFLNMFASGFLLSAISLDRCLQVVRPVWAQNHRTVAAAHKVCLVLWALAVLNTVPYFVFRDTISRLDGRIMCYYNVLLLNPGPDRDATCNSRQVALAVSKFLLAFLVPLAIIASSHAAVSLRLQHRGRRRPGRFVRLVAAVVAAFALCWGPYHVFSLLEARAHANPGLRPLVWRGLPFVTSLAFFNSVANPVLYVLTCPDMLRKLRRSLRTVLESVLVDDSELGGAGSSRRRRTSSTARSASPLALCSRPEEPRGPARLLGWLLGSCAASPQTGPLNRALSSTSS
The test can be described thus: Radioligand binding assay, [3H]PGD2, CHO/CRTH2 cell membranes. Particulars: [3H]PGD2 displacement, membranes of CHO cells transfected with CRTH2. As for the experimental part: (§1) Chinese Hamster Ovary cells were transfected with CRTH2 or DP receptors (CHO/CRTH2 and CHO/DP) and were maintained in culture in a humidified atmosphere at 37° C. (5% CO2) in Minimum Essential Medium (MEM) supplemented with 10% foetal bovine serum, 2 mM glutamine, and 1 mg ml^−1 active G418. The cells were passaged every 2-3 days. For radioligand binding assay, cells were prepared in triple-layer flasks or in 175 cm^2 square flasks (for membrane preparation). For calcium mobilisation assay, cells were grown in a 96 well plate 24h prior to the assay at a density of 80,000 cells per well.
(§2) Membranes were prepared either from CHO/CRTH2 and CHO/DP cells, or from platelets (as a source of TP receptors). CHO cells grown to confluency were washed with PBS and detached using a Versene solution (15 ml per flask). When the cells were grown in 175 cm^2 square flask, they were collected by scrapping in PBS. The cell suspensions were centrifuged (1,700 rpm, 10 min, 4° C.) and resuspended in 15 ml of buffer (1×HBSS, supplemented with 10 mM HEPES, pH 7.3). Cell suspensions were then homogenised using an Ultra Turrax at setting 4-6 for 20 s. The homogenate was centrifuged at 1,700 rpm for 10 min and the supernatant was collected and centrifuged at 20,000 rpm for 1 h at 4° C. The resulting pellet was resuspended in buffer and stored at −80° C. in aliquots of 200-500 μl. The protein concentration was determined by the method of Bradford (1976), using bovine serum albumin as standard. The platelets were washed by centrifugation at 600×g for 10 min and resuspended in ice-cold assay buffer (10 mM Tris-HCl, pH 7.4, 5 mM Glucose, 120 mM NaCl, 10 μM indomethacin) and directly centrifuged at 20,000 rpm for 30 min at 4° C. […]
(§3) [^3H]PGD2 (160 Ci/mmol) binding experiments were performed on membranes prepared as described above. […] The Unifilter plates were dried at room temperature for at least 1 h and the radioactivity retained on the filters was determined on a Beta Trilux counter (PerkinElmer Life Sciences), following addition of 40 μl of Optiphase Hi-Safe 3 (Wallac) liquid scintillation. […]

The next test deals with T2, DP Receptor (Homo sapiens, UniProt Q13258).
T2 construct: expressed in transfected cells; host or cells: Chinese Hamster Ovary (CHO) cells, membranes
T2 sequence (Q13258 1-359): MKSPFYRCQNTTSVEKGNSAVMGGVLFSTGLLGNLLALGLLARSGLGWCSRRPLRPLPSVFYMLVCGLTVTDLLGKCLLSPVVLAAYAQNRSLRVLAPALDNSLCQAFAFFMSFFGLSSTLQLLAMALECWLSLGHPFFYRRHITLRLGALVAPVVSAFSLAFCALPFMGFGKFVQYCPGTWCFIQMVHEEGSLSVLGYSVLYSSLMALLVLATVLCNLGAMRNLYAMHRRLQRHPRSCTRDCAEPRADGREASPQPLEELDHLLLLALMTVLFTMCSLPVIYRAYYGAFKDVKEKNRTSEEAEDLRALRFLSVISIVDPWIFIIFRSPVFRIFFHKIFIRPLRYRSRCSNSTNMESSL
The test can be described thus: Radioligand binding assay, [3H]PGD2, CHO/DP cell membranes. Particulars: [3H]PGD2 displacement, membranes of CHO cells transfected with DP. As for the experimental part: as §1, §2, §3

With `Cc1c(Cc2cccn2S(=O)(=O)c2ccccc2)c2cc(F)ccc2n1CC(=O)O` [Compound 1, [3-(1-Benzenesulfonyl-1H-pyrrol-2-ylmethyl)-5-fluoro-2-methyl-indol-1-yl]-acetic acid], the Ki (in general, the dissociation constant of the complex between target and ligand, obtained from inhibition or displacement) on CRTH2 Receptor worked out at 0.001 µM; on DP Receptor, 9.2 µM.
The like results for `Cc1ccc(S(=O)(=O)n2cccc2Cc2c(C)n(CC(=O)O)c3ccc(F)cc23)cc1` [Compound 2, {5-Fluoro-2-methyl-3-[1-(toluene-4-sulfonyl)-1H-pyrrol-2-ylmethyl]-indol-1-yl}-acetic acid] were, in that order, 0.0002 µM and 1.8 µM.
The corresponding values for `Cc1c(Cc2cccn2S(=O)(=O)c2ccc(F)cc2F)c2cc(F)ccc2n1CC(=O)O` [Compound 3, {3-[1-(2,4-Difluoro-benzenesulfonyl)-1H-pyrrol-2-ylmethyl]-5-fluoro-2-methyl-indol-1-yl}-acetic acid] are 0.002 µM and 8 µM.
